Laboratory results from ChEMBL document CHEMBL1136289, “Synthesis and biological evaluation of thymine nucleosides fused with 3',4'-tetrahydrofuran ring” (Bioorg Med Chem Lett, 2003).
Converted amounts (≈) assume the structure as drawn.

Key:
Details in all cases: Homo sapiens
[1] = test system: MT4; assay: Compound was evaluated for its inhibitory effect on the replication of HIV-1(IIIB) in MT-4 cells; type: functional, cell-based
[2] = test system: MT4; assay: Compound was evaluated for its inhibitory effect on the replication of HIV-2 (ROD) in MT-4 cells; type: functional, cell-based
[3] = test system: MT4; assay: Cytotoxicity against MT-4 cells; type: functional
[4] = test system: HeLa; assay: Cytotoxicity against HeLa cells; type: functional
[5] = test system: HeLa; assay: Compound was evaluated for its inhibitory effect on the replication of Coxsackie virus B3 (Cox. B3) in HeLa cells; type: functional, cell-based
[6] = test system: HeLa; assay: Compound was evaluated for its inhibitory effect on the replication of encephalomyocarditis virus (EMCV) in HeLa cells; type: functional, cell-based
[7] = test system: HeLa; assay: Compound was evaluated for its inhibitory effect on the replication of vesicular stomatitis virus (VSV) in HeLa cells; type: functional, cell-based

SMILES | EC50 [1] [µg/mL] | EC50 [2] [µg/mL] | CC50 [3] [µg/mL] | CC50 [4] [µg/mL] | EC50 [5] [µg/mL] | EC50 [6] [µg/mL] | EC50 [7] [µg/mL]
Cc1cn([C@H]2C[C@H](N=[N+]=[N-])[C@@H](CO)O2)c(=O)[nH]c1=O [ZIDOVUDINE] | 0.0012 (≈ 0.00449 µM) | 0.01 (≈ 0.0374 µM) | 1.64 (≈ 6.14 µM) | – | – | – | –
NC(=O)c1ncn([C@@H]2O[C@H](CO)[C@@H](O)[C@H]2O)n1 [RIBAVIRIN] | – | – | – | 300 (≈ 1230 µM) | 181 (≈ 743 µM) | 20.9 (≈ 85.7 µM) | 14.4 (≈ 59 µM)
Cc1cn(C2CC3COCC3(CO)O2)c(=O)[nH]c1=O (stereo unspecified) | > 100 | > 100 | < 0.8 | 4.11 (≈ 15.3 µM) | > 4.11 | > 4.11 | 3.45 (≈ 12.9 µM)
Cc1cn(C2OC3(CO)COCC3C2O)c(=O)[nH]c1=O (stereo unspecified) | 95.8 (≈ 337 µM) | > 0.54 | 0.54 (≈ 1.9 µM) | 100 (≈ 352 µM) | 100 (≈ 352 µM) | 100 (≈ 352 µM) | 100 (≈ 352 µM)
